Assay results published in patent US20220397569A1, “ASSAY FOR RAPID EVALUATION OF CHOROIDAL MAST CELL DEGRANULATION” (THE JOHNS HOPKINS UNIVERSITY, priority 2019, published 2022).
Structures can show the parent of a compound that is named as a salt. Where two headings read alike, the source gives them in different places.

Columns and labels:
[1] = system: choroidal MC degranulation; assay type: in vivo, rat
Protocol: Hydrogel preparation and injection. […] All components were then mixed together by vortex and placed on ice. The final solution was loaded into an insulin syringe with a 31-gauge needle (BD Biosciences, San Jose, Calif., USA) and then, exposed to UV light (AnalytikJena, Upland, Calif., USA) for 1.5 minutes. The release and stability of the hydrogel were evaluated in vitro in PBS, pH 7.4 at 37° C.20. The amount of 48/80 released was measured using bicinchoninic acid (BCA) assay.
Alcian blue staining. After RPE removal, eyecups were fixed in methanol-formalin-acetic acid cocktail for 30 minutes and MCs were further stained with 0.05% Alcian blue (pH 5.0) in 0.02 M sodium acetate buffer for 45 minutes. Choroids were isolated after eyecups were split at the meridian and the number of non-degranulated and degranulated MCs were counted.
RPE degeneration. After the choroid/sclera eyecup was stained with anti-RPE65 Ab, 4-5 fields from the gel and non-gel areas of each choroid were captured as optimized z-stacks at 10 or 20× magnification with Zeiss LSM710. Images were exported to ImageJ software, converted into 8-bit gray color and then, thresholded. The dark area was considered degenerating RPE. To exclude the area of RPE nucleus (unstained with anti-RPE65 Ab, therefore dark) from the total dark area, particle sizes ranging from 100-infinity (pixels^2) were analyzed so nuclei were excluded. Percentage of RPE degeneration was averaged per choroid and then, quantified.
Retinal and choroidal thickness. Eight μm cryosections through the optic nerve were stained with Picrosirius Red Stain Kit (Polysciences, Inc, Warrington, Pa., USA) for 5 minutes as recommended by the manufacturer. After rinsing in hydrochloric acid and dehydrating in ethanol, sections were cover-slipped with Permount Mounting Medium (Thermo Fisher Scientific, Waltham, Mass., USA). The sections were then imaged with a Zeiss Photomic II microscope at 10×, and adjacent overlapping images of each section were taken from Ora serrata to Ora serrata. The overlapping images were then stitched using Adobe Photoshop and a panorama image was generated. The entire retina and choroid of each panorama image was precisely hand-traced and areas of the retina and choroid, respectively, were measured using ImageJ.
(§1) Electroretinogram (ERG). After overnight dark adaptation, rats were deeply anesthetized followed by pupil dilation. The rats were placed on a heated platform and full-field scotopic ERGs were elicited by white light flashes with corneal electrodes at intensities ranging from 0.01 to 1 cd·s/m^2 using the Celeris ERG system (Diagnosys LLC, Lowell, Mass., USA). The amplitude of the a- and b-waves was measured from the a-wave trough to the b-wave peak.
Volumetric and sphericity measurement. Volumetric and sphericity measurements were performed in the rats to analyze changes in shape and size of choroidal macrophages/monocytes stained with Iba1 as previously reported.^23 Briefly, randomly chosen 4-5 fields of optimized 40× magnification z-stacks per choroid captured with Zeiss LSM710 were opened in Surpass View of Imaris software and surfaces (surface detail 1.5 μm) were created, using background subtraction (0.5 μm). Voxel number filtering was applied to remove nonspecific particles in the surfaces created. Cells touching others or ones which had only a portion of the cell body visible were omitted from the volume rendering and then, the cell volume and sphericity were quantified with Imaris software.
(§2) Drug treatments. Rats were pretreated for 1-2 days prior to 48/80 hydrogel injection with either oral treatment of ketotifen fumarate (15 mg/kg) or PBS twice daily. MC tryptase inhibitor APC 366 (5 mg/kg, CAS 258932-85-8, R&D Systems, Minneapolis, Minn.)^24 or control vehicle was administered subcutaneously once daily for 8 weeks.

[2] = mice, osteoarthritis model; cited from earlier work
[3] = Pharmacokinetic study of oral ketotifen fumarate in eye tissue (LC/MS-MS); assay type: in vivo, rat; details: 3 mg/kg once daily by gavage, sacrificed on the 5th day
Protocol: Pharmacokinetic study. Ketotifen fumarate quantification in plasma and eye tissue was conducted using high-performance liquid chromatography with tandem mass spectrometry (LC/MS-MS). Briefly, acetonitrile containing 0.5 μM losartan as internal standard was used to extract ketotifen from choroid and retina. Standards were prepared by spiking ketotifen fumarate in naive tissue from […] in a half log dilution series. Samples were weighed and placed in low retention microcentrifuge tubes with 5 μL extraction solution/mg tissue and pestle homogenized. Samples were vortexed followed by centrifugation at 16 000 g for 5 minutes at 4° C. The supernatants were transferred to a 96-well plate and 2 μL were injected for analysis. Samples were analyzed on an UltiMate 3000 UHPLC coupled to Q Exactive Focus orbitrap mass spectrometer (Thermo Fisher Scientific, Waltham, Mass., USA) using an Agilent EclipsePlus C18 RRHD (1.8 μm; 2.1. 100 mm) column. The mobile phase consisted of water+0.1% formic acid, and acetonitrile+0.1% formic acid. […] Samples were analyzed in positive ion mode via heated electrospray with capillary temperature set at 350° C. and a spray voltage of 3.5 kV. […] Data were acquired and quantified with Xcalibur software (Thermo Fisher Scientific, Waltham, Mass., USA).

choroidal MCs [4] = assay: Ex vivo eyecup assay, co-incubation with 48/80 (MC degranulation, macrophage volume and sphericity); assay type: cell-based; details: S/D rat eyecups, 48/80 300 μg/mL with ketotifen fumarate 300 μg/mL, 3 hours
Protocol: (§3) Ex vivo assays. An ex vivo assay was developed to evaluate drugs quickly and efficiently. After enucleation, the anterior segments and retinas were excised and the eyecups were split at the meridian and divided in halves. Then, eyecups were incubated with 300 μg/mL of 48/80 with or without 300 μg/mL of ketotifen fumarate in serum free DMEM in a 48-well plate for 3 hours. To evaluate oral ketotifen fumarate potential to prevent MC degranulation, rats were treated orally twice daily with ketotifen fumarate (15 mg/kg) in PBS or with PBS as control for 4 days and 2 hours prior to enucleation on the 5th day. Eyes were enucleated and exposed in 48/80 serum free DMEM for 3 hours. After washing, RPE was removed and the eyecup fixed for histochemistry. The choroid was isolated from the sclera and MCs were stained for NSE activity and viewed on the Zeiss LSM710 for the autofluorescence of the reaction product. The numbers of non-degranulated and degranulated cells were counted in the whole choroid. […]
(§4) Volumetric and sphericity measurement. […] Cells touching others or ones which had only a portion of the cell body visible were omitted from the volume rendering and then, the cell volume and sphericity were quantified with Imaris software.

RBL-2H3 cells = assay: β-hexosaminidase release assay for MC degranulation in RBL-2H3 cells; assay type: cell-based; details: Rattus norvegicus, RBL-2H3, 0.75 h; 48/80 10 μg/mL, ketotifen fumarate 10 μg/mL, 45 minutes
Protocol: In vitro assays. RBL-2H3 cells (CRL-2256, ATCC, Manassas, Va., USA) were used for the in vitro assay for MC degranulation. Cell degranulation was assessed by the (3-hexosaminidase release as previously described.^22 A density of 50 000 cells/well was plated overnight in a 96-well plate. Ten μg/mL of 48/80 or 10 μg/mL of ketotifen fumarate (1(2628, Millipore Sigma, St Louis, Mo., USA)+10 μg/mL of 48/80 dissolved in 100 μL serum free media (DMEM with 1.0 g/L glucose) (Thermo Fisher Scientific, Waltham, Mass.) were added to each well and incubated for 45 minutes. Then, the cells were lysed using 1% triton X-100 to determine MC β-hexosaminidase that was still cell associated. Twenty μL of the supernatant and then, the cell lysate was collected and added to 50 μL of cold 4-Nitrophenyl N-acetyl-B-d-glucosaminide (1.3 mg/mL in Citrate Buffer, pH 4.5, Millipore Sigma, St Louis, Mo., USA) to detect the amount of β-hexosaminidase released. […] The plate was read at 405 nm wavelength using a microplate reader (ELx808, BioTek, Winooski, Vt., USA). Degranulation was calculated as the percentage of β-hexosaminidase activity measured in the supernatants relative to the total amount of β-hexosaminidase activity in the cells exposed to 1% triton X-100 (100% degranulation).

[5] = Tolerability of oral ketotifen fumarate in rats (RPE, body weight, ERG); assay type: in vivo, rat
Protocol: as §1, §2

[6] = rats; cited from earlier work
choroidal MCs [7] = assay: Ex vivo eyecup assay after oral pretreatment of rats; design: species or system rat; details: oral 15 mg/kg twice daily for 4 days prior to enucleation; eyecups in 48/80 300 μg/ml 3 hours; compared to PBS
Protocol: as §3, §4

[8] = APC 366 5 mg/kg subcutaneous daily, 4 weeks
[9] = oral ketotifen fumarate 15 mg/kg twice daily, 4 weeks post 48/80-hydrogel implantation

SMILES | RPE degeneration [1, 8] | choroidal macrophage/monocyte activation [1, 8] | retinal and choroidal thickness ([1]; APC 366 5 mg/kg subcutaneous daily, 8 weeks) | ERG amplitude, a- and b-waves ([1]; rat, in vivo, sc, 5 mg/kg) | inflammation (transcriptional expression of IL-1β, IL-6, IL-8, CC-motif ligand 2, MMP-3) [2] | MC degranulation [1, 9] | RPE degeneration [1, 9] | retina and choroidal thickness ([1]; oral ketotifen fumarate 15 mg/kg twice daily, 8 weeks post implantation) | ketotifen fumarate in choroid [3] [nM] | ketotifen fumarate in retina [3] [nM] | choroidal macrophage activation (sphericity, volume of Iba1+ cells) (choroidal MCs [4]) | prevention of 48/80-induced MC degranulation (choroidal MCs [4]) | inhibition at 10 µg/mL (RBL-2H3 cells) [%] | RPE morphology or viability ([5]; normal S/D rats, oral 15 mg/kg twice daily for 6 wk) | ERG amplitudes after drug treatment alone ([5]; normal rats, 6 weeks of drug treatment) | adverse effects ([5]; oral administration) | growth of the animals (body weight) ([5]; oral twice daily for 6 wk after 48/80 implantations) | non-REM and REM sleep [6] | MC degranulation prevented (choroidal MCs [7]) [%] | macrophage activation (choroidal MCs [7])
NC(=O)[C@@H]1CCCN1C(=O)[C@H](CCCN=C(N)N)NC(=O)c1ccc2ccccc2c1O [APC 366] | RPE degeneration was significantly inhibited | choroidal macrophage/monocyte activation was prevented | significantly less retinochoroidal thinning | reduction in ERG amplitude of both a- and b-waves was prevented | suppressed inflammation | – | – | – | – | – | – | – | – | – | – | – | – | – | – | –
CN1CCC(=C2c3ccccc3CC(=O)c3sccc32)CC1 [ketotifen fumarate] | – | – | – | – | – | significantly prevented | significantly prevented RPE degeneration | retinochoroidal thinning was inhibited | 13 to 29 | 12 to 52 | choroidal macrophage activation was prevented | prevented MC degranulation, equivalent to the level of untreated eyecups | 56 | did not affect RPE morphology or viability | normal | did not manifest any adverse effects | nor did it affect growth of the animals | dose dependently decreased non-rapid eye movement (REM) sleep and increased REM sleep | 37 | significantly prevented macrophage activation
